The target of test [1] is Gamma-aminobutyric acid receptor subunit alpha-4 (Homo sapiens, UniProt P48169).
Test [2] concerns the target T1, Gamma-aminobutyric acid receptor subunit alpha-1 (Homo sapiens, UniProt P14867).
T1 sequence (P14867 whole entry): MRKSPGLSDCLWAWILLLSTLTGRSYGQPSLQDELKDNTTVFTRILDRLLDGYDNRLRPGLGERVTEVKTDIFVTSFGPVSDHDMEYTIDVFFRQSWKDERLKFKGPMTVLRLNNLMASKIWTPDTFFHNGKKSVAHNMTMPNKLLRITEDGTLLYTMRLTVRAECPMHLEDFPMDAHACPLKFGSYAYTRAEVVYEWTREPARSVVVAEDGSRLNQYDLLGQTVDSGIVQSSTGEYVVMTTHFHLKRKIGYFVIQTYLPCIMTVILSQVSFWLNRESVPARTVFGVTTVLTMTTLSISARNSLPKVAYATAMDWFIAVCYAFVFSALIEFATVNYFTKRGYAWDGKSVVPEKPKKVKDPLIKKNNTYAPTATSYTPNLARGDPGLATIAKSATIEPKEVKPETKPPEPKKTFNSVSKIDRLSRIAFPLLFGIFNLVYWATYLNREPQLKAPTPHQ

Values joined by “and” are separate entries in the source; they are usually repeats but may differ in a detail not shown here. Equal entries are not always repeated. A value given as a limit tells only on which side of the number the result lay.

Gamma-aminobutyric acid receptor subunit alpha-4, sequence (P48169 whole entry): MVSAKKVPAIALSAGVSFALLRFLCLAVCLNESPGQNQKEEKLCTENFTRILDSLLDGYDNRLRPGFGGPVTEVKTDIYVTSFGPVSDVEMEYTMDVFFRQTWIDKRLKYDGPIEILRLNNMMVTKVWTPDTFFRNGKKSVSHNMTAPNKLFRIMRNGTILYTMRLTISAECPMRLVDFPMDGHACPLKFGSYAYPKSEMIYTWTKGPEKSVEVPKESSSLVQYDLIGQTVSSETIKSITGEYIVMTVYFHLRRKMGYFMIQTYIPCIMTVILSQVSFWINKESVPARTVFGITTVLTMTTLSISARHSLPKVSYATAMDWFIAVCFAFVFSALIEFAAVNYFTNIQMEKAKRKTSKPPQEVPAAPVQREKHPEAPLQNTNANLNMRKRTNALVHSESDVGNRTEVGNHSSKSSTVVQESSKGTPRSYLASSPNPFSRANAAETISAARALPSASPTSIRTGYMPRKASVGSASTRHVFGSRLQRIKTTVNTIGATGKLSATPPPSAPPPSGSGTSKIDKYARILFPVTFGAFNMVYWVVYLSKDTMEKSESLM

A word on the Ki: it is a measure of affinity in units of concentration, obtained from inhibition or displacement. Higher therefore signals a looser hold on the target. As for `O=c1c2cnc3ccccc3c2[nH]n1-c1ccccc1`, the Ki in test [1] amounted to 11.9 nM; in test [2] it was 0.11 nM. The corresponding values for `Cc1nnc2ccc(-c3cccc(C(F)(F)F)c3)nn12` are over 10000 nM and 65 nM. The corresponding values for `COC(=O)c1cc2c(cn1)[nH]c1ccccc12` are 640 nM and 0.5 nM. Molecule `COCc1c(C(=O)OC(C)C)ncc2[nH]c3ccc(OCc4ccccc4)cc3c12` returned a Ki in test [1] of 1060 nM. This lies in the single-digit micromolar range. In the case of `CCOC(=O)c1cc2c(cn1)[nH]c1ccccc12`, the affinity in test [2] corresponds to a Ki of 0.6 nM.

Regarding `O=c1c2cnc3ccccc3c2[nH]n1-c1ccc(Cl)cc1`, the figures for the Ki in test [1] and in test [2] were 59 nM and 0.26 nM, respectively. Regarding `COc1ccc(-n2[nH]c3c(cnc4ccccc43)c2=O)cc1` [2-(4-Methoxy-phenyl)-2,5-dihydro-pyrazolo[4,3-c]quinolin-3-one (CGS 9895)], the values for the inhibition constant (Ki) in test [1] and in test [2] were 4 nM and 0.09 nM, respectively.

As for `CC(C)(C)OC(=O)c1ncn2c1C1CCCN1C(=O)c1c(Br)cccc1-2` (centres undefined) [8-Bromo-7-oxo-3b,4,5,6-tetrahydro-7H-2,6a,11b-triaza-benzo[g]cyclopenta[e]azulene-3-carboxylic acid tert-butyl ester], the Ki is 36 nM and 22.5 nM in test [1]; 0.45 nM in test [2]. The molecule `Cc1ccc(-c2nc3ccc(C)cn3c2CC(=O)N(C)C)cc1` [Ambien] returned an inhibition constant Ki in test [1] of over 10000 nM. Turning to `CNC(=O)c1cc2c(cn1)[nH]c1ccccc12` [CAS_4375], the Ki was over 10000 nM in test [1] and 160 nM in test [2]. The corresponding values for `CCCOC(=O)c1cc2c(cn1)[nH]c1ccccc12` [CAS_123662] are 922 nM and 7.1 nM. Turning to `COc1ccc(-n2[nH]c3c4c(ncc3c2=O)CCCCC4)cc1` [CGS-20625], the inhibition constant Ki in test [1] is 22.4 nM and 77 nM; in test [2] it was 0.15 nM.

Regarding `CCc1c(C(=O)OC)ncc2[nH]c3cc(OC)c(OC)cc3c12` [NSC_104999], the Ki in test [1] is 11.3 nM and 20 nM; in test [2], 7.5 nM. Regarding `CCOC(=O)c1ncn2c1CN(C)C(=O)c1cc(N=[N+]=[N-])ccc1-2` [RO-154513], the affinity in test [2], expressed as Ki, was 8.1 nM.

Values taken from BindingDB's records for doi:10.1016/0014-2999(96)00088-x (University Clinic For Psychiatry, 1996).
